This note sets out measurements from ChEMBL document CHEMBL5537185, “Discovery of the First-in-Class RORγ Covalent Inhibitors for Treatment of Castration-Resistant Prostate Cancer” (J Med Chem, 2024).

Active and inactive are the calls of the source. The rule behind the calls is not given here.

The subject of data set [1] is CWR22R. The data set is described as follows: Downregulation of NKX3-1 mRNA expression in human 22Rv1 cells at 1.25 to 5 uM incubated for 48 hrs by qRT-PCR analysis. The format is functional, cell-based. As to conditions: dose 1.25-5 µM. A general note: Real-time PCR tracks product formation cycle by cycle.
Data set [2] can be described thus: Half life in ICR mouse at 3 mg/kg, iv measured upto 24 hrs by LC-MS/MS analysis. The data set is classed as ADME, organism-based. As to conditions: in vivo.
In data set [3] the test system is LNCaP C4-2B. The data set is described as follows: Downregulation of AR expression in human LNCaP C4-2B cells at 1.25 to 5 uM incubated for 48 hrs by qRT-PCR analysis. The data set is classed as functional, cell-based. As to conditions: dose 1.25-5 µM.
Data set [4] is described as follows: Metabolic stability in mouse liver microsomes assessed as half life at 0.1 uM preincubated for 10 mins followed by NADPH addition and measured upto 60 mins by LC-MS/MS analysis. The data set is classed as ADME, Microsome. The conditions noted are these: time < 70 min.
Data set [5] has as its system CWR22R. Kind of data set: Antitumor activity against human 22Rv1 cells xenografted in ip dosed NOD/SCID mouse assessed as tumor growth inhibition administered five times a week for 2 weeks and measured two times per week. The format is functional, organism-based. The conditions noted are these: dose 5-10 mg/kg.
The nature of data set [6]: AUCinfinity in ICR mouse at 3 mg/kg, iv measured upto 24 hrs by LC-MS/MS analysis. The data set is classed as ADME, organism-based. The conditions noted are these: in vivo.
The nature of data set [7]: Cmax in ICR mouse at 3 mg/kg, iv measured upto 24 hrs by LC-MS/MS analysis. The format is ADME, organism-based. As to conditions: in vivo.
Data set [8] deals with CWR22R. Kind of data set: Downregulation of AR-V7 expression in human 22Rv1 cells incubated for 24 to 72 hrs by Western blot analysis. The format is functional, cell-based. The conditions noted are these: dose 1.25-5 µM, time 24-72 hrs. Background: In western blotting, separated proteins are transferred to a membrane and probed.
The subject of data set [9] is CWR22R. The data set is described as follows: Downregulation of AR-V7 expression in human 22Rv1 cells at 1.25 to 5 uM by Western blot analysis. The format is functional, cell-based. As to conditions: dose 1.25-5 µM, time 24-72 hrs, TDE = time-dependent effect.
Data set [10] deals with LNCaP C4-2B. Kind of data set: Induction of apoptosis in human LNCaP C4-2B cells assessed as increase in caspase-3 activity at 1.25 to 5 uM by Western blot analysis. The data set is classed as functional, cell-based. The conditions noted are these: dose 1.25-5 µM.
In data set [11] the test system is LNCaP C4-2B. The data set is described as follows: Downregulation of AR expression in human LNCaP C4-2B cells at 1.25 to 5 uM by Western blot analysis. The data set is classed as functional, cell-based. As to conditions: dose 1.25-5 µM, time 24-72 hrs, TDE = time-dependent effect.
The nature of data set [12]: AUClast in ICR mouse at 3 mg/kg, iv measured upto 24 hrs by LC-MS/MS analysis. The data set is classed as ADME, organism-based. As to conditions: in vivo.

Turning to `C=CC(=O)Nc1ccccc1-c1ccc(NC(=O)Cc2ccc(S(=O)(=O)CC)cc2)cc1Cl`, the outcome with CWR22R [1] and in the data set on LNCaP C4-2B [10] was Active. This molecule had a half-life in [2] of 13.2 min. The Activity result in the data set on LNCaP C4-2B [3] was “Dose-Dependent Effect”; in the data set with CWR22R [5] it was “Dose-Dependent Effect”; in the data set with CWR22R [8], “Dose-Dependent Effect”; in the data set with CWR22R [9] it was “Tde”; in the data set on LNCaP C4-2B [11] it was “Tde”. Moreover, the half-life at 0.1 µM in data set [4] amounted to 21.3 min. This molecule also gave an AUC(0-inf) in data set [6] of 585 ng·h/mL. The molecule further yielded a Cmax in data set [7] of 2000 ng/mL. Also, in data set [12], the AUC(0-t) at 24 h amounted to 584 ng·h/mL.

Usually half-life stands for how long it takes for the measured level to halve. The AUC(0-inf) is the area under the concentration-time curve extrapolated to infinity. A low value points to less exposure. Usually Cmax stands for the peak of the concentration-time curve. By AUC(0-t) is commonly meant exposure summed from dosing to a finite time, without extrapolation to infinity. High values mean more exposure, low ones less exposure.
